{"source": "patent US12006553B2", "about": "“Companion diagnostics for mitochondrial inhibitors” (priority 2017, dated 2024)", "key": {"[1]": {"test_system": "DoxyR-CSCs (Doxy-resistant (DoxyR)-MCF7 cells)", "test": "Sensitivity of Doxy-resistant CSCs to other metabolic therapies", "assay_type": "cell-based", "text": "One concern with doxycycline therapy is the potential for the development of drug-resistance in CSCs. To investigate this issue, the inventors developed and characterized the phenotypic behavior of Doxy-resistant (DoxyR)-MCF7 cells."}, "cancer stem cells (CSCs)": {"test_system": "cancer stem cells (CSCs)", "test": "CSC propagation / 3D spheroid (mammosphere) formation on low-attachment plates", "assay_type": "cell-based", "conditions": "for pIC50: CSCs, read-out: IC-50 for inhibition of CSC propagation; for inhibition of CSC propagation / 3D spheroid formation (in words): anchorage-independent growth", "text": "Because CSCs are relatively “rare”, little is known about their metabolic properties. […] Under such conditions, the majority (more than 90%) of “bulk” cancer cells die via apoptosis, while only the CSCs survive and propagate, ultimately resulting in the formation of 3D spheroid structures after about 5 days. Each 3D spheroid is clonally formed from a single CSC. For breast CSCs, these 3D spheroids are also known as tumor-spheres or mammospheres. The generation of these 3D spheroids is thought to mimic the process of tumor formation and/or metastasis, thus providing a model for drug discovery and functional validation."}, "[2]": {"test_system": "HMGR (3-hydroxy-3-methylglutaryl-CoA-reductase)", "test": "Inhibition of mevalonate metabolism", "conditions": "statin-like"}}, "note": "pIC50: −log10 of the molar value."}
{"smiles": "CCN(CC)CCCC(C)Nc1ccnc2cc(Cl)ccc12", "note": "(centres unmarked) [Chloroquine]", "values": [{"measurement": "sensitivity of DoxyR-CSCs to the drug", "setting": "[1]", "result": "sensitive"}]}
{"smiles": "[Cl-].c1ccc2c(c1)[I+]c1ccccc1-2", "note": "[DPI, diphenyleneiodium chloride]", "values": [{"measurement": "pIC50", "setting": "cancer stem cells (CSCs)", "result": "~8.52"}, {"measurement": "potency for targeting CSCs relative to Palbociclib", "setting": "cancer stem cells (CSCs); versus Palbociclib", "result": "approximately 30 times"}]}
{"smiles": "CCc1c2c(nc3ccc(OC(=O)N4CCC(N5CCCCC5)CC4)cc13)-c1cc3c(c(=O)n1C2)COC(=O)[C@]3(O)CC", "note": "[Irinotecan]", "values": [{"measurement": "sensitivity of DoxyR-CSCs to the drug", "setting": "[1]", "result": "sensitive"}]}
{"smiles": "O=C(Nc1ccc([N+](=O)[O-])cc1Cl)c1cc(Cl)ccc1O", "note": "[Niclosamide]", "values": [{"measurement": "sensitivity of DoxyR-CSCs to the drug", "setting": "[1]", "result": "sensitive"}]}
{"smiles": "CC(=O)c1c(C)c2cnc(Nc3ccc(N4CCNCC4)cn3)nc2n(C2CCCC2)c1=O", "note": "[Palbociclib]", "values": [{"measurement": "pIC50", "setting": "cancer stem cells (CSCs)", "result": "~7.00"}]}
{"smiles": "CNC(=O)c1cc(Oc2ccc(NC(=O)Nc3ccc(Cl)c(C(F)(F)F)c3)cc2)ccn1", "note": "[Sorafenib]", "values": [{"measurement": "sensitivity of DoxyR-CSCs to the drug", "setting": "[1]", "result": "sensitive"}]}
{"smiles": "CC(C)(C)C(O)/C=C/c1ccc2c(c1)OCO2", "note": "(centres unmarked) [Stiripentol]", "values": [{"measurement": "sensitivity of DoxyR-CSCs to the drug", "setting": "[1]", "result": "sensitive"}]}
{"smiles": "O=C1O[C@H]([C@@H](O)CO)C(O)=C1O", "note": "[Vitamin C]", "values": [{"measurement": "sensitivity of DoxyR-CSCs to the drug", "setting": "[1]", "result": "sensitive"}]}
{"smiles": "COc1ccc([C@@H]2CC(=O)c3c(O)cc(O[C@@H]4O[C@H](COC(=O)CC(C)(O)CC(=O)O)[C@@H](O)[C@H](O)[C@H]4O[C@@H]4O[C@@H](C)[C@H](O)[C@@H](O)[C@H]4O)cc3O2)cc1O", "note": "(some centres unmarked) [brutieridin]", "values": [{"measurement": "inhibition of CSC propagation / 3D spheroid formation (in words)", "setting": "cancer stem cells (CSCs)", "result": "inhibit"}, {"measurement": "inhibition of mevalonate metabolism", "setting": "[2]", "result": "inhibit"}]}
{"smiles": "C[C@@H]1O[C@@H](O[C@@H]2[C@@H](Oc3cc(O)c4c(c3)O[C@H](c3ccc(O)cc3)CC4=O)O[C@@H](COC(=O)C[C@@](C)(O)CC(=O)O)[C@H](O)[C@H]2O)[C@@H](O)[C@H](O)[C@H]1O", "note": "[melitidin]", "values": [{"measurement": "inhibition of CSC propagation / 3D spheroid formation (in words)", "setting": "cancer stem cells (CSCs)", "result": "inhibit"}, {"measurement": "inhibition of mevalonate metabolism", "setting": "[2]", "result": "inhibit"}]}
{"smiles": "CC[C@H]1/C=C/C=C/C[C@@H](C)[C@H](O)[C@@](C)(O)C(=O)[C@@H](C)[C@H](O)[C@@H](C)C(=O)[C@@H](C)[C@H](O)[C@@H](C)/C=C/C(=O)O[C@@H]2[C@H](C)[C@H](CC1)O[C@]1(CC[C@H](C)[C@H](C[C@@H](C)O)O1)[C@H]2C", "note": "[oligomycin]", "values": [{"measurement": "inhibition of CSC propagation / 3D spheroid formation (in words)", "setting": "cancer stem cells (CSCs)", "result": "effectively blocked"}]}
